In one assay the test system is Phalaenopsis plants. The experiment in a line: Induction of spiking in potted Phalaenopsis by spraying, number of inflorescences per plant. To be noted: spray 1000 ppm, 0.1% Zipper, 1% DMSO, 100 plants. Type of assay: in vivo. An excerpt:
Growing conditions for the plants throughout the whole greenhouse stay are the same, except for the above discussed variations in light and temperature. Preferably this means that the plants are potted in pots with a diameter of 10-20 cm, with a growing medium of bark, coconut, Styrofoam, sphagnum moss and turf. Preferably they are stored on table-high racks, which facilitates handling. Light intensity on the surface of the pot is 3000-15000 lux (see Schapendonlk, A.H.C.M., “Belichting Phalaenopsis”, PT-Project 12170, productverslag, Productschap Tuinbouw). Normal daylight is maintained, but preferably in wintertime a lights on:lights off regime of 14:10 hours is used. Watering is preferably automated and is taken care of by a sprinkler system or any other spraying system, an ebb and flow system, via gutters running along the racks, or by submerging the pots in a water basin Nutrients and/or fertiliser are added to the water on a regular basis (EC 0,5-2, NPK 20-20-20). See also ook “Cultivation Guidelines Phalaenopsis Pot Plants, supra.
In June 2004 three groups of Phalaenopsis plants have been induced 6 months after potting. For testing 100 plants were treated and 100 non-treated controls were used per variety. Both groups of plants were cultured as described above. […] The results in Table 1 show the number of inflorescences per plant for the different test groups.

A further assay relates to Phalaenopsis. To be noted: cited from earlier work.
A further assay deals with Dendrobium. The conditions noted are these: application to the mature pseudobulbs, not the developing ones; cited from earlier work.

Here are results for 1 compound from patent US20070122907A1, “Orchid culturing method” (priority 2005, published 2007).

As to `c1ccc(CNc2ncnc3nc[nH]c23)cc1` [6-BA-P, 6-benzylaminopurine], the Average stemcount treated in the assay with Phalaenopsis plants (variety Anthura Malaga, untreated 1.23) is listed as 3.61; in the assay with Phalaenopsis plants (variety Brother John Red Delight, untreated 1.13), 3.20; with Phalaenopsis plants (variety Dutch Lady, untreated 1.58), 3.84; with Phalaenopsis plants (variety Golden Treasure, untreated 1.44), 2.97; in the assay on Phalaenopsis plants (variety Lippe Flair 344, untreated 1.32) it was 3.38; in the assay on Phalaenopsis plants (variety Maliby Leopard, untreated 1.51) it was 3.12. In addition, the “induction of off-season spiking” value in the assay on Phalaenopsis is listed as “unable to induce off-season spiking”. Moreover, the triggering of spiking entry in the assay with Dendrobium is “shown to trigger spiking”.
